Data as given in patent US6777412B2 (priority 1990, dated 2004).
Like-named read-outs stand apart in the source and are kept apart here. Marks after values point to notes of the source that are not given here.

Key:
Puccinia recondita = test: Foliar fungal disease test on plants: Puccinia recondita (Pr); type: in vivo
Procedure, shortened: (§1)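 Potted plants treated by foliar spray to maximum retention (100 ppm a.i. unless stated) plus root drench (~40 ppm a.i. in dry soil), with 0.05% Tween 20 on cereals, one or two days before spore-suspension inoculation.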

Erysiphe graminis hordei = test: Foliar fungal disease test on plants: Erysiphe graminis hordei (Egh); type: in vivo
Pyricularia oryzae = type: in vivo
Venturia inaequalis = test: Foliar fungal disease test on plants: Venturia inaequalis (Vi); type: in vivo
Procedure, shortened: as §1

Cercospora arachidicola = test: Foliar fungal disease test on plants: Cercospora arachidicola (Ca); type: in vivo
Method: The compounds were tested against a variety of foliar fungal diseases of plants. The technique employed was as follows.
The plants were grown in John Innes Potting Compost (No.1 or 2) in 4 cm diameter minipots. The test compounds were formulated either by bead milling with aqueous Dispersol T or as a solution in acetone or acetone/ethanol which was diluted to the required concentration immediately before use. For the foliage diseases, the formulations (100 ppm active ingredient except where otherwise indicated) were sprayed onto the foliage and applied to the roots of the plants in the soil. The sprays were applied to maximum retention and the root drenches to a final concentration equivalent to approximately 40 ppm a.i. in dry soil. Tween 20, to give a final concentration of 0.05%, was added when the sprays were applied to cereals.
For most of the tests the compound was applied to the soil (roots) and to the foliage (by spraying) one or two days before the plant was inoculated with the disease. An exception was the test on Erysiphe graminis in which the plants were inoculated 24 hours before treatment. Foliar pathogens were applied by spray as spore suspensions onto the leaves of test plants. After inoculation, the plants were put into an appropriate environment to allow infection to proceed and then incubated until the disease was ready for assessment. The period between inoculation and assessment varied from four to fourteen days according to the disease and environment.
The disease control vas recorded by the following grading:
3=trace-5% of disease on untreated plants
2=6-25% of disease on untreated plants
1=26-59% of disease on untreated plants
0=60-100% of disease on untreated plants
Ca Cercospora arachidicola

Plasmopara viticola = test: Foliar fungal disease test on plants: Plasmopara viticola (Pv); type: in vivo
Procedure, shortened: as §1

[1] = test system: Phytophthora infestans lycopersici; type: in vivo
[2] = 100 ppm active ingredient foliar spray plus root drench (approx. 40 ppm a.i. in dry soil), one or two days before inoculation
[3] = 100 ppm active ingredient foliar spray plus root drench (approx. 40 ppm a.i. in dry soil), plants inoculated 24 hours before treatment

| Structure (SMILES) | melting point [°C] | disease control grading, Pr (Puccinia recondita) (Puccinia recondita; [2]) | disease control grading, Egh (Erysiphe graminis hordei) (Erysiphe graminis hordei; [3]) | disease control grading, Po (Pyricularia oryzae) (Pyricularia oryzae; [2]) | disease control grading, Vi (Venturia inaegualis) (Venturia inaequalis; [2]) | disease control grading, Ca (Cercospora arachidicola) (Cercospora arachidicola; [2]) | disease control grading, Pv (Plasmopara viticola) (Plasmopara viticola; [2]) | disease control grading, Pil (Phytophthora infestans lycopersici) [1, 2] | disease control grading, Pr (Puccinia recondita) (Puccinia recondita; 10 ppm foliar application only) | disease control grading, Egh (Erysiphe graminis hordei) (Erysiphe graminis hordei; 10 ppm foliar application only) | disease control grading, Po (Pyricularia oryzae) (Pyricularia oryzae; 10 ppm foliar application only) | disease control grading, Vi (Venturia inaegualis) (Venturia inaequalis; 10 ppm foliar application only) | disease control grading, Ca (Cercospora arachidicola) (Cercospora arachidicola; 10 ppm foliar application only) | disease control grading, Pv (Plasmopara viticola) (Plasmopara viticola; 10 ppm foliar application only) | disease control grading, Pil (Phytophthora infestans lycopersici) ([1]; 10 ppm foliar application only) |
| --- | --- | --- | --- | --- | --- | --- | --- | --- | --- | --- | --- | --- | --- | --- | --- |
| CO/C=C(/C(=O)OC)c1ccccc1Oc1cc(OCc2ccc([N+](=O)[O-])cc2)ncn1 | 96 to 98 |  |  |  |  |  |  |  |  |  |  |  |  |  |  |
| CO/C=C(/C(=O)OC)c1ccccc1Oc1cc(Nc2ccccc2)ncn1 [4 of Table I] |  | 4 (4=no disease) | 4 (4=no disease) | 3 (3=trace-5% of disease on untreated plants) | 4 (4=no disease) | 4 (4=no disease) | 4 (4=no disease) | 3 (3=trace-5% of disease on untreated plants) |  |  |  |  |  |  |  |
| COC=C(C(=O)OC)c1ccccc1Oc1nccc(-c2ccccc2)n1 [180 of Table III] |  |  |  |  |  |  |  |  | 4^a (4=no disease) | 4^a (4=no disease) | 3^a (3=trace-5% of disease on untreated plants) | 4^a (4=no disease) | 3^a (3=trace-5% of disease on untreated plants) | 4^a (4=no disease) | 4^a (4=no disease) |
| CO/C=C(/C(=O)OC)c1ccccc1Oc1cc(Sc2ccccn2)ncn1 [218 of Table I] |  | 4 (4=no disease) | 4 (4=no disease) | 3 (3=trace-5% of disease on untreated plants) | 4 (4=no disease) | 4 (4=no disease) | 4 (4=no disease) | 3 (3=trace-5% of disease on untreated plants) |  |  |  |  |  |  |  |
| CO/C=C(/C(=O)OC)c1ccccc1Oc1cc(Nc2ccccn2)ncn1 [220 of Table I] |  | 4 (4=no disease) | 4 (4=no disease) | 4 (4=no disease) | 4 (4=no disease) | 4 (4=no disease) | 4 (4=no disease) | 0 (0=60-100% of disease on untreated plants) |  |  |  |  |  |  |  |
| CO/C=C(/C(=O)OC)c1ccccc1Oc1cc(Sc2ncccn2)ncn1 [239 of Table I] |  | 4 (4=no disease) | 4 (4=no disease) | 3 (3=trace-5% of disease on untreated plants) | 4 (4=no disease) | 4 (4=no disease) | 4 (4=no disease) | 4 (4=no disease) |  |  |  |  |  |  |  |
| CO/C=C(/C(=O)OC)c1ccccc1Oc1cc(N(C)c2ccccc2C#N)ncn1 [354 of Table I] |  | 4 (4=no disease) | 4 (4=no disease) | 3 (3=trace-5% of disease on untreated plants) | 4 (4=no disease) | 4 (4=no disease) | 4 (4=no disease) | 0 (0=60-100% of disease on untreated plants) |  |  |  |  |  |  |  |
| CO/C=C(/C(=O)OC)c1ccccc1Oc1cc(S(=O)(=O)c2ccccn2)ncn1 [356 of Table I] |  | 1 (1=26-59% of disease on untreated plants) | 0 (0=60-100% of disease on untreated plants) |  | 4 (4=no disease) | 3 (3=trace-5% of disease on untreated plants) | 4 (4=no disease) | 0 (0=60-100% of disease on untreated plants) |  |  |  |  |  |  |  |
| CO/C=C(/C(=O)OC)c1ccccc1Oc1cc(OCCc2ccc(C#N)cc2)ncn1 [359 of Table I] |  | 4 (4=no disease) | 4 (4=no disease) |  |  | 4 (4=no disease) | 4 (4=no disease) | 4 (4=no disease) |  |  |  |  |  |  |  |
| CO/C=C(/C(=O)OC)c1ccccc1Oc1cc(Nc2ccccc2C#N)ncn1 [377 of Table I] |  | 4 (4=no disease) | 4 (4=no disease) | 0 (0=60-100% of disease on untreated plants) | 4 (4=no disease) | 4 (4=no disease) | 4 (4=no disease) | 4 (4=no disease) |  |  |  |  |  |  |  |
| CO/C=C(/C(=O)OC)c1ccccc1Oc1cc(N(C(=O)c2ccccc2)C(=O)c2ccccc2)ncn1 [398 of Table I] |  | 4 (4=no disease) | 4 (4=no disease) | 3 (3=trace-5% of disease on untreated plants) | 4 (4=no disease) | 4 (4=no disease) | 4 (4=no disease) | 4 (4=no disease) |  |  |  |  |  |  |  |
